From patent US20070014692A1, “Method and apparatus for measurement of binding between a protein and a nucleotide” (priority 1998, published 2007)

Biological target: T1, human estrogen receptor binding to the ERE (estrogen response element from Xenopus Vitellogenen A2 Gene) (Homo sapiens, UniProt P03372)
T1 construct: ubiquitin (gene fusion); host or cells: Saccharomyces cerevisiae strain AF103, YEpE10 plasmid, CUP1 promoter
Experiment: Evanescent fiber optic sensor with ERE fiber: binding of Cy5-tagged hER to estrogen response element in the presence of compound (S/C)

T1 sequence (P03372 whole entry, the tested form may be a part): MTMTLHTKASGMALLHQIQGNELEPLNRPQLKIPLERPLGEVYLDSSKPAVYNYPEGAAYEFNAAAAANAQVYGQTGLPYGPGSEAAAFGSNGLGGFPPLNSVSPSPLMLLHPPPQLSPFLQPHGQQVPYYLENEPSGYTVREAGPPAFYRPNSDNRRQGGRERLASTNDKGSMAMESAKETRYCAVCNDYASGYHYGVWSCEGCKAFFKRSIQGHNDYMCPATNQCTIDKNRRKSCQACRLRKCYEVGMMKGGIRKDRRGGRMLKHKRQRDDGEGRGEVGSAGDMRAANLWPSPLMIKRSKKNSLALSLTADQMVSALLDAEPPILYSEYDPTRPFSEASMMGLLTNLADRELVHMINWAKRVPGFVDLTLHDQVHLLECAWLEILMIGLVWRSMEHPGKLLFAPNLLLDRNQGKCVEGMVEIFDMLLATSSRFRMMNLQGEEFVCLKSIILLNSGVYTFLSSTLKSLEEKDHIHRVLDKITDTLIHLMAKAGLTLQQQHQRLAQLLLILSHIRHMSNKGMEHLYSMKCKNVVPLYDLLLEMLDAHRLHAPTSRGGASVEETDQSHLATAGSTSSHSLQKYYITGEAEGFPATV

Question: How did the “effect on binding of receptor to the ERE fiber, in words” value (10^−6M compound) turn out when `C[C@H]1CCCC(=O)CCC/C=C/c2cc(O)cc(O)c2C(=O)O1` [zearalenone] was run?
Answer: increase binding to the ERE more than do the weak biological estrogens

Question: And the “Response of ERE fiber to hER and 10^−6M compound (control = 3.51)” value (S/C value, control = 3.51)?
Answer: 5.01
